ChEMBL document CHEMBL2413072, “Synthesis and in vitro anticancer studies of novel C-2 arylidene congeners of lantadenes” (2013)

What was measured:
Assay type in all cases: functional
SR = assay: Growth inhibition of human SR cells by sulforhodamine B assay
U-251 = assay: Growth inhibition of human U251 cells assessed as cell growth at 10^-8 M by sulforhodamine B assay; conditions: read-out: Activity
SF-295 = assay: Growth inhibition of human SF295 cells assessed as cell growth at 10^-8 M by sulforhodamine B assay; conditions: read-out: Activity
HT-29 [1] = assay: Growth inhibition of human HT-29 cells assessed as cell growth at 10^-8 M by sulforhodamine B assay; conditions: read-out: Activity
HL-60(TB) = assay: Growth inhibition of human HL-60(TB) cells assessed as cell growth at 10^-8 M by sulforhodamine B assay; conditions: read-out: Activity
OVCAR-8 [2] = assay: Growth inhibition of human OVCAR8 cells by sulforhodamine B assay
OVCAR-4 [3] = assay: Growth inhibition of human OVCAR4 cells by sulforhodamine B assay
UACC-257 = assay: Growth inhibition of human UACC257 cells by sulforhodamine B assay
LOX IMVI [4] = assay: Growth inhibition of human LOXIMVI cells by sulforhodamine B assay
TK-10 [5] = assay: Growth inhibition of human TK10 cells assessed as cell growth at 10^-4 M by sulforhodamine B assay; conditions: read-out: Activity
786-0 = assay: Growth inhibition of human 786-0 cells assessed as cell growth at 10^-4 M by sulforhodamine B assay; conditions: read-out: Activity
UACC-62 = assay: Growth inhibition of human UACC62 cells assessed as cell growth at 10^-4 M by sulforhodamine B assay; conditions: read-out: Activity
SW-620 [6] = assay: Growth inhibition of human SW620 cells assessed as cell growth at 10^-4 M by sulforhodamine B assay; conditions: read-out: Activity
NCI-H460 = assay: Growth inhibition of human NCI-H460 cells assessed as cell growth at 10^-4 M by sulforhodamine B assay; conditions: read-out: Activity
DU-145 = assay: Growth inhibition of human DU145 cells assessed as cell growth at 10^-6 M by sulforhodamine B assay; conditions: read-out: Activity
A498 = assay: Growth inhibition of human A498 cells assessed as cell growth at 10^-6 M by sulforhodamine B assay; conditions: read-out: Activity
OVCAR-8 [7] = assay: Growth inhibition of human OVCAR8 cells assessed as cell growth at 10^-6 M by sulforhodamine B assay; conditions: read-out: Activity
OVCAR-4 [8] = assay: Growth inhibition of human OVCAR4 cells assessed as cell growth at 10^-6 M by sulforhodamine B assay; conditions: read-out: Activity
SK-MEL-28 = assay: Growth inhibition of human SK-MEL-28 cells assessed as cell growth at 10^-6 M by sulforhodamine B assay; conditions: read-out: Activity
SK-MEL-2 = assay: Growth inhibition of human SK-MEL-2 cells assessed as cell growth at 10^-6 M by sulforhodamine B assay; conditions: read-out: Activity
SF-539 = assay: Growth inhibition of human SF539 cells assessed as cell growth at 10^-6 M by sulforhodamine B assay; conditions: read-out: Activity
SW-620 [9] = assay: Growth inhibition of human SW620 cells assessed as cell growth at 10^-6 M by sulforhodamine B assay; conditions: read-out: Activity
KM12 = assay: Growth inhibition of human KM12 cells assessed as cell growth at 10^-6 M by sulforhodamine B assay; conditions: read-out: Activity
HT-29 [10] = assay: Growth inhibition of human HT-29 cells assessed as cell growth at 10^-6 M by sulforhodamine B assay; conditions: read-out: Activity
HCT-116 = assay: Growth inhibition of human HCT116 cells assessed as cell growth at 10^-6 M by sulforhodamine B assay; conditions: read-out: Activity
[11] = Growth inhibition of human HCC2998 cells assessed as cell growth at 10^-6 M by sulforhodamine B assay; conditions: HCC 2998, read-out: Activity
COLO 205 [12] = assay: Growth inhibition of human COLO205 cells assessed as cell growth at 10^-6 M by sulforhodamine B assay; conditions: read-out: Activity
CCRF-CEM [13] = assay: Growth inhibition of human CCRF-CEM cells assessed as cell growth at 10^-6 M by sulforhodamine B assay; conditions: read-out: Activity
MDA-MB-231 = assay: Growth inhibition of human MDA-MB-231 cells assessed as cell growth at 10^-7 M by sulforhodamine B assay; conditions: read-out: Activity
ACHN = assay: Growth inhibition of human ACHN cells assessed as cell growth at 10^-7 M by sulforhodamine B assay; conditions: read-out: Activity
SK-OV-3 = assay: Growth inhibition of human SKOV3 cells assessed as cell growth at 10^-7 M by sulforhodamine B assay; conditions: read-out: Activity
[14] = Growth inhibition of human NCI-ADR-RES cells assessed as cell growth at 10^-7 M by sulforhodamine B assay; conditions: read-out: Activity
M14 = assay: Growth inhibition of human M14 cells assessed as cell growth at 10^-7 M by sulforhodamine B assay; conditions: read-out: Activity
Malme-3M = assay: Growth inhibition of human MALME-3M cells assessed as cell growth at 10^-7 M by sulforhodamine B assay; conditions: read-out: Activity
LOX IMVI [15] = assay: Growth inhibition of human LOXIMVI cells assessed as cell growth at 10^-7 M by sulforhodamine B assay; conditions: read-out: Activity
SW-620 [16] = assay: Growth inhibition of human SW620 cells assessed as cell growth at 10^-7 M by sulforhodamine B assay; conditions: read-out: Activity
COLO 205 [17] = assay: Growth inhibition of human COLO205 cells assessed as cell growth at 10^-7 M by sulforhodamine B assay; conditions: read-out: Activity
NCI-H322M = assay: Growth inhibition of human NCI-H322M cells assessed as cell growth at 10^-7 M by sulforhodamine B assay; conditions: read-out: Activity
CCRF-CEM [18] = assay: Growth inhibition of human CCRF-CEM cells assessed as cell growth at 10^-7 M by sulforhodamine B assay; conditions: read-out: Activity
TK-10 [19] = assay: Growth inhibition of human TK10 cells assessed as cell growth at 10^-8 M by sulforhodamine B assay; conditions: read-out: Activity
SN12C = assay: Growth inhibition of human SN12C cells assessed as cell growth at 10^-8 M by sulforhodamine B assay; conditions: read-out: Activity
CAKI-1 = assay: Growth inhibition of human CAKI-1 cells assessed as cell growth at 10^-8 M by sulforhodamine B assay; conditions: read-out: Activity
OVCAR-4 [20] = assay: Growth inhibition of human OVCAR4 cells assessed as cell growth at 10^-8 M by sulforhodamine B assay; conditions: read-out: Activity
[21] = read-out: LC50 (the source's name)
[22] = read-out: pLC50 (the source's name) (converted)

For `CC1(C)C[C@@H](O)[C@]2(C(=O)O)CC[C@]3(C)C(=CC[C@@H]4[C@@]5(C)C/C(=C\C=C\c6ccccc6)C(=O)C(C)(C)[C@@H]5CC[C@]43C)[C@@H]2C1`, the GI50 (SR; read-out: GI50) was 2.48 µM, the CC50 (SR; [21]) was over 100 µM and the TGI (SR; read-out: TGI) was 6.91 µM. It also gave a GI50 (SR; read-out: pGI50 (converted)) of 2.45 µM, a CC50 (SR; [22]) of over 100 µM and a TGI (SR; read-out: pTGI (converted)) of 6.92 µM. For the same compound, the growth at 0.01 µM (U-251) was 92%, the growth at 0.01 µM (SF-295) was 99% and the growth at 0.01 µM (HT-29 [1]) was 104%. It also gave a growth at 0.01 µM (HL-60(TB)) of 101%, a GI50 (OVCAR-8 [2]; read-out: GI50) of 3.41 µM and a CC50 (OVCAR-8 [2]; [21]) of 60.8 µM. For the same compound, the TGI (OVCAR-8 [2]; read-out: TGI) was 14.2 µM, the GI50 (OVCAR-8 [2]; read-out: pGI50 (converted)) was 3.39 µM and the CC50 (OVCAR-8 [2]; [22]) was 60.3 µM. It also gave a TGI (OVCAR-8 [2]; read-out: pTGI (converted)) of 14.1 µM, a GI50 (OVCAR-4 [3]; read-out: GI50) of 3.85 µM and a CC50 (OVCAR-4 [3]; [21]) of 40.2 µM. It also gave a TGI (OVCAR-4 [3]; read-out: TGI) of 15.4 µM, a GI50 (OVCAR-4 [3]; read-out: pGI50 (converted)) of 3.89 µM and a CC50 (OVCAR-4 [3]; [22]) of 39.8 µM. The TGI (OVCAR-4 [3]; read-out: pTGI (converted)) was 15.5 µM, the GI50 (UACC-257; read-out: GI50) was 2.62 µM and the CC50 (UACC-257; [21]) was 35.1 µM. The TGI (UACC-257; read-out: TGI) was 9.01 µM, the GI50 (UACC-257; read-out: pGI50 (converted)) was 2.63 µM and the CC50 (UACC-257; [22]) was 35.5 µM. It also gave a TGI (UACC-257; read-out: pTGI (converted)) of 8.91 µM, a GI50 (LOX IMVI [4]; read-out: GI50) of 1.9 µM and a CC50 (LOX IMVI [4]; [21]) of 6.68 µM. For the same compound, the TGI (LOX IMVI [4]; read-out: TGI) was 3.56 µM, the GI50 (LOX IMVI [4]; read-out: pGI50 (converted)) was 1.91 µM and the CC50 (LOX IMVI [4]; [22]) was 6.61 µM. The TGI (LOX IMVI [4]; read-out: pTGI (converted)) was 3.55 µM, the growth at 100 µM (TK-10 [5]) was -86% and the growth at 100 µM (786-0) was -85%. For the same compound, the growth at 100 µM (UACC-62) was -96%, the growth at 100 µM (SW-620 [6]) was -57% and the growth at 100 µM (NCI-H460) was -70%. It also gave a growth at 1 µM (DU-145) of 101%, a growth at 1 µM (A498) of 80% and a growth at 1 µM (OVCAR-8 [7]) of 93%. For the same compound, the growth at 1 µM (OVCAR-4 [8]) was 89%, the growth at 1 µM (SK-MEL-28) was 97% and the growth at 1 µM (SK-MEL-2) was 100%. It also gave a growth at 1 µM (SF-539) of 90%, a growth at 1 µM (SW-620 [9]) of 91% and a growth at 1 µM (KM12) of 92%. It also gave a growth at 1 µM (HT-29 [10]) of 99%, a growth at 1 µM (HCT-116) of 90% and a growth at 1 µM [11] of 108%. For the same compound, the growth at 1 µM (COLO 205 [12]) was 108%, the growth at 1 µM (CCRF-CEM [13]) was 96% and the growth at 0.1 µM (MDA-MB-231) was 102%. It also gave a growth at 0.1 µM (ACHN) of 98%, a growth at 0.1 µM (SK-OV-3) of 102% and a growth at 0.1 µM [14] of 108%. It also gave a growth at 0.1 µM (M14) of 95%, a growth at 0.1 µM (Malme-3M) of 93% and a growth at 0.1 µM (LOX IMVI [15]) of 95%. The growth at 0.1 µM (SW-620 [16]) was 97%, the growth at 0.1 µM (COLO 205 [17]) was 100% and the growth at 0.1 µM (NCI-H322M) was 96%. For the same compound, the growth at 0.1 µM (CCRF-CEM [18]) was 102%, the growth at 0.01 µM (TK-10 [19]) was 98% and the growth at 0.01 µM (SN12C) was 98%. It also gave a growth at 0.01 µM (CAKI-1) of 94% and a growth at 0.01 µM (OVCAR-4 [20]) of 100%.
